Assay [1] relates to collagenase. Kind of assay: Dermal destruction by proteases in skin explants, collagenase. The settings on record: 18ppm of zerumbone co-injected with the protease; five days at 37°C; confocal microscope. As to the method:
Principle: Once prepared, skin explants (person, abdominal skin) received an injection of elastase or collagenase that could proteolyse 30 µmol/min of elastin or collagen. In another case, the invention product (titrated at 18ppm of zerumbone) was co-injected with the protease to assess its ability to inhibit the proteolysis of constituents of the dermis, and thus of protection of the dermis. After five days of incubation at 37°C, the result was observed through a confocal microscope and compared to what was obtained in the case without protease at the same depth (60 µm).

The test system of assay [2] is IL6. Put plainly: IL6 synthesis by ELISA in adipocyte supernatants. In kind it is cell-based. The settings on record: Homo sapiens. As to the method: Human preadipocytes were seeded and induced to differentiate in the presence of a cocktail of specific inducers and the evaluated products. At the end of differentiation (at 7 and 10 days), the IL6 content synthetized by the adipocytes is measured in the culture supernatants by ELISA method. Furthermore, after 10 days of differentiation, mature adipocytes are placed in contact of the products during 72h and the IL6 content is also measured in the cellular supernatants. In parallel, survival estimation was realized on these two assays (Hoechst tests).
In general terms: An ELISA detects its analyte on a solid surface through an enzyme-linked reagent.

Assay [3] concerns Human preadipocytes. Kind of assay: Anti-differentiating effect, intracellular G3PDH activity, human preadipocytes. It is filed as cell-based. As to the method: Human preadipocytes were plated and induced to differentiate at confluence in the presence of a cocktail of specific inducers and the evaluated products. After 10 days, the layers were crushed and intracellular G3PDH activity was assayed. A cell quantification test (Hoechst) on the same extracts complements the assay.

For assay [4], the system named is adiponectin. Kind of assay: Adiponectin synthesis by ELISA, 3 days contact. In kind it is cell-based, Human. As to the method:
Human preadipocytes were plated and induced to differentiate at confluence in the presence of a cocktail of specific inducers. After 10 days of differentiation, the cells are purged from inducers in their basis medium and left in contact with the products for 3 days in this medium. After contact, the supernatants were collected and the adiponectin amount was measured by ELISA.

Setting [5] is: 72 h, adipocytes after differenciation (3days), read-out: IL6 % Var / control.

Like-named read-outs stand apart in the source and are kept apart here.

For `C/C1=C\CC(C)(C)/C=C/C(=O)/C(C)=C/CC1` [Zerumbone, 2E, 6E, 9E-Humulatrien-8-one], the “integrity of the dermis under collagenase stress” value in assay [1] is “retains its integrity”. The inhibition at 3 ppm in assay [2] (setting [5]) came to 33%; in assay [2] (240 h, adipocytes in the course of differenciation (10days), read-out: IL6 % Var / control), 49%; in assay [3] (Homo sapiens, 240 h, 3ppm, 10 days, read-out: [G3PDH] % Var / control), 83%. The inhibition at 5 ppm in assay [2] (setting [5]) was found to be 31%; in assay [2] (240 h, adipocytes in the course of differenciation (10days), p=0.09, read-out: IL6 % Var / control) it was 50%; in assay [3] (Homo sapiens, 240 h, 5ppm, 10 days, read-out: [G3PDH] % Var / control), 91%. For the same compound, the “[G3PDH]” value is 144 +/- 15 mU/ 10^6 cell in assay [3] (0.5ppm, 10 days); 106 +/- 14 mU/ 10^6 cell in assay [3] (1ppm, 10 days); 30 +/- 2 mU/ 10^6 cell in assay [3] (3ppm, 10 days); 15 +/- 3 mU/ 10^6 cell in assay [3] (5ppm, 10 days). The “G3PDH activity and human preadipocytes differentiation” value in assay [3] (5 ppm of extract) is recorded as “complete inhibition”. Besides, the inhibition at 0.5 ppm in assay [3] (Homo sapiens, 240 h, 0.5ppm, 10 days, read-out: [G3PDH] % Var / control) was determined as 18%. The inhibition at 1 ppm in assay [3] (Homo sapiens, 240 h, 1ppm, 10 days, read-out: [G3PDH] % Var / control) is 39%. Further, the “[Adiponectin]” value in assay [4] (2ppm) was 221.4 +/- 24.5 ng/10^E6 cell; in assay [4] (6ppm), 19.0 +/- 0.6 ng/10^E6 cell. Besides, the activation at 2 ppm in assay [4] (Homo sapiens, 72 h, 2ppm, read-out: [Adiponectin] % Var / control) turned out to be 45%. Moreover, the activation at 6 ppm in assay [4] (Homo sapiens, 72 h, 6ppm, read-out: [Adiponectin] % Var / control) came out at 95%.
